Reference: patent publication US7045532B2 (Millennium Pharmaceuticals, Inc., priority 1999, dated 2006)
Like-named read-outs stand apart in the source and are kept apart here.

Molecular target: T1, ACE-2 (Homo sapiens, UniProt Q9BYF1)
T1 construct: a stop codon inserted after the serine immediately preceding the transmembrane domain; made in house; host or cells: CHO K1 cells (transient transfection, purified from conditioned medium)
Assay: ACE-2 Competitive Substrate Assay (ACS Assay)
Type: biochemical

[1] = Ki class per key, compounds tested in 5% DMSO, 12 compound concentrations, 25° C., Ki=Kiapp/(1+[S]/Km), read-out: Human ACE-2 Activity
[2] = Table 3, very good ACE-2 inhibiting compounds, species not given, read-out: ACE-2 Activity, Ki
[3] = Ki class, compounds tested in 5% DMSO, 12 compound concentrations, Ki=Kiapp/(1+[S]/Km), read-out: Human ACE-2 Activity

T1 sequence (Q9BYF1 18-740 limits assumed): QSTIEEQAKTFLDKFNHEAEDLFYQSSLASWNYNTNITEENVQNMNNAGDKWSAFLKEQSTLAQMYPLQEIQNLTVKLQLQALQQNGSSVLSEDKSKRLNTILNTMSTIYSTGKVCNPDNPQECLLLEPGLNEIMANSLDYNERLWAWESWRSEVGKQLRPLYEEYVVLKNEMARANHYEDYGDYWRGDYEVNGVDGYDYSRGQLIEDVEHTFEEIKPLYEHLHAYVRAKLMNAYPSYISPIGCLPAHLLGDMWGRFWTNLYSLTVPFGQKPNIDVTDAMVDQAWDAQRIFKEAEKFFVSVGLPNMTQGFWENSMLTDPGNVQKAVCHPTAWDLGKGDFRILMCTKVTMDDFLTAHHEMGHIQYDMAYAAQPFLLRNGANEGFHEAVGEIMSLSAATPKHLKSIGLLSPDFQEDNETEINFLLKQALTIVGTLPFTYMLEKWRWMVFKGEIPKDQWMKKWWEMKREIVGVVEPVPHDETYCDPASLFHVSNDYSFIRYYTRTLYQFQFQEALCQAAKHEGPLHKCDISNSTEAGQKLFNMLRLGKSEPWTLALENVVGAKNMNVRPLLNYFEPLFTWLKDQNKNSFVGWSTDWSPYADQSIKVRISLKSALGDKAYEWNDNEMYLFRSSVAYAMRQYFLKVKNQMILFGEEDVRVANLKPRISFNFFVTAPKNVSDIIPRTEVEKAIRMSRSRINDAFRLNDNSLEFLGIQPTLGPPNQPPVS

| Compound | Ki [1] | Ki [2] | Ki [3] |
| --- | --- | --- | --- |
| Cc1ccc(-c2ccc(C[C@H](N[C@@H](CC(C)C)C(=O)O)C(=O)O)cc2)nc1 [PZ, (S,S)-2-{1-Carboxy-2-[4-(5-methyl-pyridin-2-yl)-phenyl]-ethylamino}-4-methyl-pentanoic acid] | < 100 nM | < 50 nM | – |
| CC(C)CC(N[C@@H](Cc1csc(Cc2ccccc2)n1)C(=O)O)C(=O)O (single isomer, unassigned) [JZ, 2-[2-(2-Benzyl-thiazol-4-yl)-1-carboxy-ethylamino]-4-methyl-pentanoic acid] | – | – | > 500 nM |
| CC(C)C[C@H](N[C@@H](Cc1ccc(O)cc1)C(=O)O)C(=O)O [NX, 2-[1-Carboxy-2-(4-hydroxy-phenyl)-ethylamino]-4-methyl-pentanoic acid] | – | – | > 500 nM |
| CC(C)C[C@H](N[C@@H](Cc1coc(-c2ccccc2)n1)C(=O)O)C(=O)O [LM, (S,S)-2-[1-Carboxy-2-(2-phenyl-oxazol-4-yl)ethylamino]-4-methyl-pentanoic acid] | – | – | > 500 nM |
| COC(=O)[C@H](Cc1cccc(O)c1)N[C@@H](CC(C)C)C(=O)OCc1ccccc1 [LK, 2-[2-(3-Hydroxy-phenyl)-1-methoxycarbonyl-ethylamino]-4-methyl-pentanoic acidbenzyl ester] | – | – | > 500 nM |
| CC(C)C[C@H](N[C@@H](Cc1ccc(-c2ccc(Cl)cc2)o1)C(=O)O)C(=O)O [OL, (S,S)-2-{1-Carboxy-2-[5-(4-chloro-phenyl)-furan-2-yl]-ethylamino}-4-methyl-pentanoic acid] | – | – | > 500 nM |
| COC(=O)[C@H](Cc1cncn1Cc1cc(Cl)cc(Cl)c1)N[C@H](CC(C)C)C(=O)OCc1ccccc1 [LA, 2-[2-[3-(3,5-Dichloro-benzyl)-3H-imidazol-4-yl]-1-methoxycarbonyl-ethylamino]-4-methyl-pentanoic acidbenzyl ester] | – | – | > 500 nM |
| CC(C)C[C@H](N[C@@H](CNC(=O)c1cccc(Cl)c1)C(=O)O)C(=O)O [LI, (S,S)-2-[1-Carboxy-2-(3-chloro-benzoylamino)-ethylamino]-4-methyl-pentanoic acid] | – | – | > 500 nM |
| CC(C)C[C@H](N[C@@H](Cc1ccc(-n2cccc2)cc1)C(=O)O)C(=O)O [PO, 2-[1-Carboxy-2-(4-pyrrol-1-yl-phenyl)-ethylamino]-4-methyl-pentanoic acid] | > 500 nM | < 50 nM | – |
| CC(C)C[C@H](N[C@@H](Cc1cccc(Cc2ccccc2)c1)C(=O)O)C(=O)O [PB, (S,S)-2-[2-(3-Benzyl-phenyl)-1-carboxy-ethylamino]-4-methyl-pentanoic acid] | > 500 nM | – | – |
| CCCCc1ccc(Cn2cncc2C[C@H](NC(CC(C)C)C(=O)O)C(=O)O)cc1 (single isomer, unassigned) [HI, 2-[2-[3-(4-Butyl-benzyl)-3H-imidazol-4-yl]-1-carboxy-ethylamino]-4-methyl-pentanoic acid] | – | – | 100 to 500 nM |
| CC(C)C[C@H](N[C@@H](CCC(=O)Nc1nc2ccc(F)cc2s1)C(=O)O)C(=O)O [OV, (S,S)-2-[1-Carboxy-3-(6-fluoro-benzothiazol-2-ylcarbamoyl)-propylamino]-4-methyl-pentanoic acid] | – | – | > 500 nM |
| COc1cc(OC)cc(-c2cccc(C[C@H](N[C@@H](CC(C)C)C(=O)O)C(=O)O)c2)c1 [MK, (S,S)-2-[1-Carboxy-2-(3′,5′-dimethoxy-biphenyl-3-yl)-ethylamino]-4-methyl-pentanoic acid] | – | – | > 500 nM |
| CC(C)C[C@H](N[C@@H](Cc1ccccc1OCc1cccc(Cl)c1)C(=O)O)C(=O)O [QO, 2-[1-Carboxy-2-[2-(3-chloro-benzyloxy)-phenyl]-ethylamino]-4-methyl-pentanoic acid] | > 500 nM | – | – |
| CCOc1ccc2nc(NC(=O)C[C@H](N[C@@H](CC(C)C)C(=O)O)C(=O)O)sc2c1 [MP, (S,S)-2-[1-Carboxy-2-(6-ethoxy-benzothiazol-2-ylcarbamoyl)-ethylamino]-4-methyl-pentanoic acid] | – | – | 100 to 500 nM |
| CC(C)C[C@H](N[C@@H](Cc1cccc(OCc2csc3ccc(Cl)cc23)c1)C(=O)O)C(=O)O [PH, S,S-2-{1-Carboxy-2-[3-(5-chloro-benzo[b]thiophen-3-ylmethoxy)-phenyl]-ethylamino}-4-methyl-pentanoic acid] | < 100 nM | < 50 nM | – |
| CC(C)C[C@H](N[C@@H](Cc1ccc(C(=O)NC2CCCCC2)cc1)C(=O)O)C(=O)O [QH, 2-[1-Carboxy-2-(4-cyclohexylcarbamoyl-phenyl)-ethylamino]-4-methyl-pentanoic acid] | > 500 nM | – | – |

More lines, now with the values ahead:

| Ki [1] | Ki [2] | Ki [3] | Compound |
| --- | --- | --- | --- |
| – | – | 100 to 500 nM | CC(C)C[C@H](N[C@@H](CCNS(=O)(=O)c1ccc(-c2ccccc2)cc1)C(=O)O)C(=O)O [KF, 2-[3-(Biphenyl-4-sulfonylamino)-1-carboxy-propylamino]-4-methyl-pentanoic acid] |
| – | < 50 nM | < 100 nM | CC(C)C[C@H](N[C@@H](CC(=O)Nc1nc2c(Cl)cccc2s1)C(=O)O)C(=O)O [MD, (S,S)-2-[1-Carboxy-2-(4-chloro-benzothiazol-2-ylcarbamoyl)-ethylamino]-4-methyl-pentanoic acid] |
| – | < 50 nM | < 100 nM | CC(C)C[C@H](N[C@@H](CC(=O)Nc1nc2ccc(Cl)cc2s1)C(=O)O)C(=O)O [MB, (S,S)-2-[1-Carboxy-2-(6-chloro-benzothiazol-2-ylcarbamoyl)-ethylamino]-4-methyl-pentanoic acid] |
| – | – | 100 to 500 nM | CC(C)C[C@H](N[C@@H](Cn1ccn(CCC2CCCCC2)c1=O)C(=O)O)C(=O)O [ME, (S,S)-2-{1-Carboxy-2-[3-(2-cyclohexyl-ethyl)-2-oxo-2,3-dihydro-imidazol-1-yl]-ethylamino}-4-methyl-pentanoic acid] |
| – | – | 100 to 500 nM | CC(C)C[C@H](N[C@@H](Cn1ccn(Cc2ccc(F)c(F)c2)c1=O)C(=O)O)C(=O)O [OU, 2-[1-Carboxy-2-[3-(3,4-difluoro-benzyl)-2-oxo-2,3-dihydro-imidazol-1-yl]-ethylamino]-4-methyl-pentanoic acid] |
| – | < 50 nM | < 100 nM | CC(C)C[C@H](N[C@@H](CC(=O)Nc1nc2ccc(Br)cc2s1)C(=O)O)C(=O)O [MR, 2-[2-(6-Bromo-benzothiazol-2-ylcarbamoyl]-1-carboxy-ethylamino]-4-methyl-pentanoic acid] |
| – | < 50 nM | < 100 nM | CC(C)C[C@H](N[C@@H](Cc1ccnn1Cc1cc(Cl)cc(Cl)c1)C(=O)O)C(=O)O [MV, 2-{1-carboxy-2-[2-(3,5-dichlorobenzyl)-2H-pyrazol-3-yl]-ethylamino}-4-methyl-pentanoic acid] |
| – | < 50 nM | < 100 nM | Cc1ccc(-c2nc(C[C@H](N[C@@H](CC(C)C)C(=O)O)C(=O)O)cs2)cc1 [KK, (S,S)-2-[1-Carboxy-2-(2-p-tolyl-thiazol-4-yl)-ethylamino]-4-methyl-pentanoic acid] |
| – | 50 to 100 nM | < 100 nM | CC(C)C[C@H](N[C@@H](Cc1csc(-c2ccc(F)c(Cl)c2)n1)C(=O)O)C(=O)O [KJ, (S,S)-2-{1-Carboxy-2-[2-(3-chloro-4-fluoro-phenyl)-thiazol-4-yl-]-ethylamino}-4-methyl-pentanoic acid] |
| – | 50 to 100 nM | < 100 nM | CC(C)C[C@H](N[C@@H](Cc1csc(-c2ccc(Cl)cc2Cl)n1)C(=O)O)C(=O)O [KG, (S,S)-2-{1-Carboxy-2-[2-(2,4-dichloro-phenyl)-thiazol-4-yl-]-ethylamino}-4-methyl-pentanoic acid] |
